Experimental data taken from patent US20230277612A1, “SAPONIN DERIVATIVES FOR USE IN MEDICINE” (priority 2020, published 2023).
Like-named read-outs stand apart in the source and are kept apart here.

How the values were obtained:
[1] = tested on: EGFR expressing cells (HeLa and A431); details: summary in description
[2] = Critical micellar concentration (CMC) by ANS fluorescence; type: physicochemical
Description: The critical micellar concentration (CMC) of saponins derived from Saponaria officinalis (SO) (Table A7) and derived from Quillaja saponaria (QS) (Table A8, and Table A9) was determined by the method of DeVendittis et al. (A fluorimetric method for the estimation of the critical micelle concentration of surfactants, Analytical Biochemistry, Volume 115, Issue 2, August 1981, Pages 278-286) as follows:
(§1) The emission spectrum of 8-Anilinonaphthalene-1-sulfonic acid (ANS) in either purified water (MQ) or PBS (Dulbecco's PBS+/+) was determined at dry weight concentrations of saponins ranging from 1 to 1400 pM to cover the range below and above the CMC. Above the CMC, the fluorescence yield of ANS increases and the wavelength of maximum emission decreases due to portioning of the fluorescent dye into micelles. Fluorescence yields were recorded on a Fluoroskan Ascent FL (Thermo Scientific) at an excitation wavelength of 355 nm, and an emission wavelength of 460 nm. 6 μg at a concentration of 75.86 pM of ANS were used per sample and measurement.
The critical micellar concentration (CMC) of saponins was determined by the method of DeVendittis et al. (A fluorimetric method for the estimation of the critical micelle concentration of surfactants, Analytical Biochemistry, Volume 115, Issue 2, August 1981, Pages 278-286) as follows:
as §1, with “μM” for “pM”

human red blood cells = test: cells; type: cell-based
Description: Red blood cells (RBCs) were isolated from a buffy coat using a Ficoll gradient. The obtained RBC pellet (˜4-5 ml) was washed 2× with 50 ml DPBS (without Ca^2+/Mg^2+, PAN-Biotech GmbH). Cells were pelleted by centrifugation for 10 min, 800×g at RT. RBC were counted and resuspended at 500.000.000 c/ml in DPBS (without Ca^2+/Mg^2+), based on total cell count.
(§2) Saponin dilutions were prepared in DPBS (with Ca^2+/Mg^2+, PAN-Biotech GmbH), at 1.11× final strength. For positive lysis control a 0.02% Triton-X100 solution was prepared in DPBS^+/+. Of all compound solutions 135 μl was dispensed/well in a 96 well V-bottom plate. To this 15 μl RBC suspension was added and mixed shortly (10 sec-600 rpm). The plate was incubated 30 min at RT, with gentle agitation. Afterwards the plate was spun for 10 min at 800×g to pellet the RBC and 100-120 μl supernatant was transferred to a standard 96 wp (96 well-plate).
as §2, with “DPBS+/+.” for “DPBS^+/+.”

A431 cells = test: cells; type: cell-based; details: Table A6, saponin alone, read-out: IC50 nM (Toxicity)
Description: (§3) (FIGS. 66a and 66B). Next toxicity was determined, for this the modified saponins were titrated on HeLa and A431 cells. […] Next toxicity was determined, for this the modified saponins were titrated on HeLa and A431 cells.

HeLa cells = test: cells; type: cell-based; details: Table A5, saponin alone, read-out: IC50 nM (Toxicity)
Description: as §3

[3] = tested on: EGFR expressing cells (A431); type: cell-based; details: A431; + 5 pM EGFdianthin; read-out: IC50 endosomal escape enhancing activity
[4] = tested on: EGFR expressing cells (HeLa); type: cell-based; details: HeLa; + 5 pM EGFdianthin; read-out: IC50 endosomal escape enhancing activity

| Compound | Endosomal escape enhancing activity (enhancement of cytotoxicity of effector conjugate) [1] | CMC compared to corresponding underivatised saponin [2] | other results |
| --- | --- | --- | --- |
| CC1OC(OC2C(C)OC(OC(=O)[C@]34CCC(C)(C)CC3C3=CCC5[C@@]6(C)CC[C@H](OC7OC(C(=O)O)C(O)C(OC8OCC(O)C(O)C8O)C7OC7OC(CO)C(O)C(O)C7O)[C@@](C)(C=O)C6CC[C@@]5(C)[C@]3(C)C[C@H]4O)C(OC3OC(C)C(OC4OCC(O)C(OC5OC(CO)C(O)C(O)C5O)C4O)C(O)C3O)C2O)C(O)C(OC2OCC(O)C(O)C2O)C1O (stereo partly shown) [Molecule 8] | display activity | increased CMC |  |
| CC1OC(OC2C(C)OC(OC(=O)[C@]34CCC(C)(C)CC3C3=CCC5[C@@]6(C)CC[C@H](OC7OC(C(=O)NC(C)(CO)CO)C(O)C(OC8OCC(O)C(O)C8O)C7OC7OC(CO)C(O)C(O)C7O)[C@@](C)(C=O)C6CC[C@@]5(C)[C@]3(C)C[C@H]4O)C(OC3OC(C)C(OC4OCC(O)C(OC5OC(CO)C(O)C(O)C5O)C4O)C(O)C3O)C2O)C(O)C(OC2OCC(O)C(O)C2O)C1O (stereo partly shown) [Molecule 11] | display activity |  |  |
| CC(=O)OC1C(C)OC(OC2C(C)OC(OC(=O)C34CCC(C)(C)CC3C3=CCC5C6(C)CCC(OC7OC(C(=O)NC(C)(CO)CO)C(O)C(OC8OCC(O)C(O)C8O)C7OC7OC(CO)C(O)C(O)C7O)C(C)(C=NNC(=O)CCCCCN7C(=O)C=CC7=O)C6CCC5(C)C3(C)CC4O)C(OC3OC(C)C(OC4OCC(O)C(OC5OC(CO)C(O)C(O)C5O)C4O)C(O)C3O)C2O)C(O)C1OC1OCC(O)C(O)C1O (stereo not shown) [Molecule 14] | have the capacity to enhance the cytotoxic effect |  |  |
| CC(=O)OC1C(C)OC(OC2C(C)OC(OC(=O)[C@]34CCC(C)(C)CC3C3=CCC5[C@@]6(C)CC[C@H](OC7OC(C(=O)NCCN8C(=O)C=CC8=O)C(O)C(OC8OCC(O)C(O)C8O)C7OC7OC(CO)C(O)C(O)C7O)[C@@](C)(CO)C6CC[C@@]5(C)[C@]3(C)C[C@H]4O)C(OC3OC(C)C(OC4OCC(O)C(OC5OC(CO)C(O)C(O)C5O)C4O)C(O)C3O)C2O)C(O)C1OC1OCC(O)C(O)C1O (stereo partly shown) [Molecule 20] | have the capacity to enhance the cytotoxic effect |  |  |
| CC(=O)OC1C(C)OC(OC2C(C)OC(OC(=O)[C@]34CCC(C)(C)CC3C3=CCC5[C@@]6(C)CC[C@H](OC7OC(C(=O)O)C(O)C(OC8OCC(O)C(O)C8O)C7OC7OC(CO)C(O)C(O)C7O)[C@@](C)(CO)C6CC[C@@]5(C)[C@]3(C)C[C@H]4O)C(OC3OC(C)C(OC4OCC(O)C(OC5OC(CO)C(O)C(O)C5O)C4O)C(O)C3O)C2O)C(O)C1OC1OCC(O)C(O)C1O (stereo partly shown) [Molecule 6] | have the capacity to enhance the cytotoxic effect | increased CMC |  |
| CC1OC(OC2C(C)OC(OC(=O)[C@]34CCC(C)(C)CC3C3=CCC5[C@@]6(C)CC[C@H](OC7OC(C(=O)NCCN8C(=O)C=CC8=O)C(O)C(OC8OCC(O)C(O)C8O)C7OC7OC(CO)C(O)C(O)C7O)[C@@](C)(C=O)C6CC[C@@]5(C)[C@]3(C)C[C@H]4O)C(OC3OC(C)C(OC4OCC(O)C(OC5OC(CO)C(O)C(O)C5O)C4O)C(O)C3O)C2O)C(O)C(OC2OCC(O)C(O)C2O)C1O (stereo partly shown) [Molecule 19] | display activity |  |  |
| CC1OC(OC2C(C)OC(OC(=O)[C@]34CCC(C)(C)CC3C3=CCC5[C@@]6(C)CC[C@H](OC7OC(C(=O)O)C(O)C(OC8OCC(O)C(O)C8O)C7OC7OC(CO)C(O)C(O)C7O)[C@@](C)(CO)C6CC[C@@]5(C)[C@]3(C)C[C@H]4O)C(OC3OC(C)C(OC4OCC(O)C(OC5OC(CO)C(O)C(O)C5O)C4O)C(O)C3O)C2O)C(O)C(OC2OCC(O)C(O)C2O)C1O (stereo partly shown) [Molecule 10] | have the capacity to enhance the cytotoxic effect | increased CMC |  |
| CC(=O)OC1C(C)OC(OC2C(C)OC(OC(=O)[C@]34CCC(C)(C)CC3C3=CCC5[C@@]6(C)CC[C@H](OC7OC(C(=O)NC(C)(CO)CO)C(O)C(OC8OCC(O)C(O)C8O)C7OC7OC(CO)C(O)C(O)C7O)[C@@](C)(C=O)C6CC[C@@]5(C)[C@]3(C)C[C@H]4O)C(OC3OC(C)C(OC4OCC(O)C(OC5OC(CO)C(O)C(O)C5O)C4O)C(O)C3O)C2O)C(O)C1OC1OCC(O)C(O)C1O (stereo partly shown) [Molecule 3A] | display activity |  |  |
| CC(=O)OC1C(C)OC(OC2C(C)OC(OC(=O)[C@]34CCC(C)(C)CC3C3=CCC5[C@@]6(C)CC[C@H](OC7OC(C(=O)NC(C)(CO)CO)C(O)C(OC8OCC(O)C(O)C8O)C7OC7OC(CO)C(O)C(O)C7O)[C@@](C)(CO)C6CC[C@@]5(C)[C@]3(C)C[C@H]4O)C(OC3OC(C)C(OC4OCC(O)C(OC5OC(CO)C(O)C(O)C5O)C4O)C(O)C3O)C2O)C(O)C1OC1OCC(O)C(O)C1O (stereo partly shown) [Molecule 9] | have the capacity to enhance the cytotoxic effect |  |  |
| CC(=O)OC1C(C)OC(OC2C(C)OC(OC(=O)[C@]34CCC(C)(C)CC3C3=CCC5[C@@]6(C)CC[C@H](OC7OC(C(=O)NCCN8C(=O)C=CC8=O)C(O)C(OC8OCC(O)C(O)C8O)C7OC7OC(CO)C(O)C(O)C7O)[C@@](C)(C=O)C6CC[C@@]5(C)[C@]3(C)C[C@H]4O)C(OC3OC(C)C(OC4OCC(O)C(OC5OC(CO)C(O)C(O)C5O)C4O)C(O)C3O)C2O)C(O)C1OC1OCC(O)C(O)C1O (stereo partly shown) [Molecule 18] | display activity |  |  |
| CC(=O)OC1C(C)OC(OC2C(C)OC(OC(=O)[C@]34CCC(C)(C)CC3C3=CCC5[C@@]6(C)CC[C@H](OC7OC(C(=O)NCCN8C(=O)C=CC8=O)C(O)C(OC8OCC(O)C(O)C8O)C7OC7OC(CO)C(O)C(O)C7O)[C@@](C)(CO)C6CC[C@@]5(C)[C@]3(C)C[C@H]4O)C(OC3OC(C)C(OC4OCC(O)C(OC5OC(CO)C(O)C(O)C5O)C4O)C(O)C3O)C2O)C(O)C1OC1OCC(O)C(O)C1O (stereo partly shown) [SO1861-(Glu-AEM)-(Ald-OH)] |  |  | IC50 (human red blood cells; Table A5, read-out: IC50 nM (hemolysis)): > 1e+06 nM; IC50 (human red blood cells; Table A6, read-out: IC50 nM (hemolysis)): > 1e+06 nM; IC50 (A431 cells): > 100000 nM; IC50 (HeLa cells): > 100000 nM; CMC ([2]; Table A7, determined in PBS): 90 ± 10 µM; IC50 [3]: 20 µM; IC50 [4]: 40 µM |
| CC1OC(OC2C(C)OC(OC(=O)C34CCC(C)(C)CC3C3=CCC5C6(C)CCC(OC7OC(C(=O)O)C(O)C(OC8OCC(O)C(O)C8O)C7OC7OC(CO)C(O)C(O)C7O)C(C)(C=NNC(=O)CCCCCN7C(=O)C=CC7=O)C6CCC5(C)C3(C)CC4O)C(OC3OC(C)C(OC4OCC(O)C(OC5OC(CO)C(O)C(O)C5O)C4O)C(O)C3O)C2O)C(O)C(OC2OCC(O)C(O)C2O)C1O (stereo not shown) [Molecule 15] | have the capacity to enhance the cytotoxic effect | increased CMC |  |
